Experimental data as given in ChEMBL document CHEMBL1129878, “Synthesis of 5-epiaragusterol A” (Bioorg Med Chem Lett, 1997).
In brackets after ≈: the same amount, converted by molar mass.

Experiments:
KB = assay: The compound was tested for the inhibitory activity against the proliferation of KB cells; type: functional, cell-based; details: Homo sapiens
L1210 = assay: The compound was tested in vivo for the potent antitumor activity toward L1210 leukemia in mice at the dose of 1.6 (mg/kg); type: functional, Mus musculus

C[C@@H]1C[C@H]1[C@H](C)C[C@@H](O)[C@@]1([C@H]2CC[C@H]3[C@@H]4CC[C@@H]5CC(=O)CC[C@]5(C)[C@H]4C[C@@H](O)[C@]23C)CO1 [5-EPIARAGUSTEROL A]
IC50 (KB): 0.041 µg/mL (≈ 0.0894 µM)

C[C@@H]1C[C@H]1[C@H](C)C[C@@H](O)[C@@]1([C@H]2CC[C@H]3[C@@H]4CC[C@H]5CC(=O)CC[C@]5(C)[C@H]4C[C@@H](O)[C@]23C)CO1 [ARAGUSTEROL A]
IC50 (KB): 0.042 µg/mL (≈ 0.0916 µM) | T/C (L1210): 220%
